Legend:
[1] = system: bacterial flora present on prerigor beef samples; test: Working Example #1: total plate count on prerigor beef after spray, with or without steam; type: cell-based
Experimental: The objective of working example #1 was to determine if 0.5% and 1.0% lactic acid alone and in combination with Test Formula #1 and/or steam achieved a reduction in the bacterial flora present on prerigor beef samples. An exposure time of 10 minutes was utilized for all applications and testing was performed at 33° C. Sixteen prerigor beef samples were obtained and kept in a cooler until time of testing. Samples were aseptically divided in half. Eight different test treatments were utilized with four replicate pieces per treatment with the exception of the steam +0.5% lactic acid treatment which only had three replicate pieces. Two cores (4.3 cm diameter) were taken from each replicate piece before and after treatment, combined into 99 mL of Phosphate Buffered Dilution water, stomached for 1 minutes and then serially diluted and plated using pour plate technique. Test Products: • 1. Test Formula #1 at 200 ppm Total […] • 2. Test Formula #1 at 200 ppm Total […]+0.5% Lactic Acid • 3. Test Formula #1 at 200 ppm Total […]+1.0% Lactic Acid • 4. 0.5% Lactic Acid • 5. Steam Alone, followed by a sterile water rinse • 6. Steam+Test Formula #1 at 200 ppm Total […], followed by a sterile water rinse • 7. Steam+Test Formula #1 at 200 ppm Total […]+0.5% Lactic Acid, followed by a sterile water rinse • 8. Steam+0.5% Lactic Acid followed by a sterile water rinse Product Application: All product use solutions were applied by a spray application for 10 seconds. This delivered approximately 150 mL of product. An exposure time of 10 minutes was utilized, followed by a 10 second sterile water rinse, if applicable. Neutralizer: 99 mL of Phosphate Buffered Dilution Water Dilutions Plated: 10^0, 10^-1, 10^-2 for Total Plate Count Before • 10^0, 10^-1 for Total Plate Count After Plating Medium: Tryptone Glucose Extract Agar Incubation: 26° C. for 72 hours [table]

[2] = system: bacterial flora of prerigor beef; test: Working Example #2: total plate count on prerigor beef, extended spray and exposure times; type: cell-based; details: 0.5% Lactic Acid, 25 psi, 10 sec spray, 10-minute exposure
Excerpt: The objective of the testing was to determine the efficacy of various antimicrobial treatments with extended spray and exposure times against the bacterial flora of prerigor beef. Prerigor beef samples were obtained and kept in a cooler at ambient temperature until time of testing. Ten different test treatments were utilized with four replicates per treatment. Two cores (4.3 cm diameter) were taken as each replicate from one piece for both before- and after-treatment samples and combined into 99 mL of Letheen Broth. The cores/neutralizer mixtures were stomached for 1 minute and then serially diluted and plated using pour plate technique. Test Products: • Test Formula #1* at 200 ppm […]=0.42% (4.2 mL were added to 995.8 mL tap water) • Test Formula #1* at 500 ppm […] (10.5 mL were added to 989.5 mL tap water) • 0.5% Lactic Acid • *Test Formula #1, batch # Si120972, was titrated at 4.76% total peracid. Application: Eight cores (2 cores per replicate) were placed onto a clean and sanitary screen. The cores were sprayed with the appropriate test product utilizing a 10- or 30-second spray application time. For each replicate, two cores were removed after a 10-minute exposure time and placed into a stomacher bag containing 99 mL of neutralizer. Neutralizer: 99 mL Letheen Broth Dilutions: 10^0, 10^-1, 10^-2 for Total Plate Count Before • 10^0, 10^-1 for Total Plate Count After Plating Medium: Tryptone Glucose Extract Agar Incubation: 26° C. for 72 hours Calculations: Average CFU/plate=(All eight counts from four replicates/4) • Average CFU/plate×100=Average CFU/100 mL=Y [formula] • Dilution=10, 100, or 1000 • r=2.15 cm • 2=# of cores

[3] = system: bacterial flora of prerigor beef; test: Working Example #4: total plate count on prerigor beef, high pressure spray, comparison to Lactic Acid; type: cell-based; details: ~0.5% Lactic Acid, ~230 psi, 30 sec spray, 10-minute exposure
Excerpt: The objective of the testing was to determine the efficacy of Test Formula #1 at approximately 50, 100 and 200 ppm total peracid with a high pressure application spray at elevated temperatures in comparison to Lactic Acid against the bacterial flora of prerigor beef. Prerigor beef samples were obtained and kept in a cooler at ambient temperature until time of testing. Four different test treatments were utilized with four replicates per treatment. Two cores (4.3 cm diameter) were taken as each replicate from one piece for both before- and after-treatment samples and combined into 99 mL of Letheen Broth. The cores/neutralizer mixtures were stomached for 1 minute and then serially diluted and plated using pour plate technique. Test Product: Test Formula #1 at 50, 100 and 200 ppm total peracid • Lactic Acid (88% concentrate) • (Batch # Si120972, was titrated at 4.76% total peracid) Application: Eight cores (2 cores per replicate) were aseptically removed from each sample before treatment. These were used for the before-treatment samples. The remaining sample was placed onto a clean and sanitary screen. The sample was then sprayed with Test Formula #1 at approximately 50, 100 or 200 ppm total peracid utilizing a 20- or 30-second spray application time. 0.5% Lactic Acid utilized only the 30-second spray application. […]

[4] = system: Listeria innocua ATCC 33090; test: Working Example #5: inoculated prerigor beef, high-pressure spray; type: cell-based; details: ˜0.5%-0.75% Lactic Acid; ~220 psi, 30 second spray, ˜120° F., 10 minutes exposure
Experimental: The objective of the testing was to determine the efficacy of Test Formula #1 and Lactic Acid against Listeria innocua ATCC 33090 with a high-pressure application spray at elevated temperatures. Prerigor beef samples were obtained and kept in a cooler at ambient temperature until time of testing. Samples were cut into 13 cm pieces and 2.0 mL of the inoculum (see Test System Preparation below) was spread evenly over the entire surface of the sample. Inoculated samples were then left at room temperature (˜23° C.) for ≧15 minutes. Four replicate samples were taken (two cores per replicate) before treatment. After each spray treatment, a 10-minute exposure time was utilized, and taken four replicate samples were taken (two cores per replicate) and stomached for 1 minute, serially diluted and plated using pour plate technique. Treatments: • 1. Test Formula #1 at 200 ppm total peracid with […], 30 second spray time. • 2. Test Formula #1 at 200 ppm total peracid with ˜150 psi pressure spray, 30 second spray time. • 3. Test Formula #1 at 200 ppm total peracid with ˜100 psi pressure spray, 30 second spray time. • 4. Water Control with ˜220 psi pressure spray, 30-second spray time. • 5. ˜0.5%-0.75% Lactic Acid with ˜220 psi pressure spray, 30-second spray time. • 6. Test Formula #1 at 100 ppm total peracid with ˜220 psi pressure spray, 30 second spray time. • 7. […]

[5] = cited from earlier work

Compound | Avg. Log10 Reduc. ([1]; 0.5% Lactic Acid, 10 s spray, 10 min exposure, 33° C.) | Avg. CFU/100 mL After ([1]; 0.5% Lactic Acid, 10 s spray, 10 min exposure, 33° C., Before 2.7 × 10^4) | Avg. Log10 Reduc. ([1]; Steam + 0.5% Lactic Acid, with sterile water rinse) | Avg. CFU/100 mL After ([1]; Steam + 0.5% Lactic Acid, with sterile water rinse, Before 2.5 × 10^4) | Avg. Log10 Reduc. ([2]; 98° F.) | Avg. CFU/100 mL After ([2]; 98° F., Before 1.6 × 10^4) | Avg. Log10 Reduc. ([2]; 120° F.) | Avg. CFU/100 mL After ([2]; 120° F., Before 1.0 × 10^5) | Avg. Log10 Reduc. [3] | Avg. CFU/100 mL After ([3]; Before 8.7 × 10^5) | Avg. CFU/100 mL After [4] | Avg. Log10 Reduc. [4] | solubility [5]
CC(O)C(=O)O (stereo not shown) [Lactic Acid, 2-hydroxypropionic acid] | 0.91 Log10 | 5.4 × 10^3 CFU/100 mL | 1.69 Log10 | 9.3 × 10^2 CFU/100 mL | −0.01 Log10 | 1.5 × 10^4 CFU/100 mL | 0.07 Log10 | 8.4 × 10^4 CFU/100 mL | 1.58 Log10 | 2.3 × 10^4 CFU/100 mL | 3.5 × 10^5 CFU/100 mL | 1.63 Log10 | –
peroxyacetic acid | – | – | – | – | – | – | – | – | – | – | – | – | freely soluble in water, alcohol, ether, and sulfuric acid
